Target: T1, lysozyme (LYS) (Gallus gallus, UniProt P00698)
T1 construct: gene LYZ; commercial lysozyme, Sigma-Aldrich, >=18,000 U; single chain of 129 residues; docking model PDB 1GWD
Test: intrinsic fluorescence quenching titration
Assay type: binding
Settings: 298 K; Tris-HCl pH 7.43; excitation 282 nm; inner-filter corrected; double-log
Excerpt: intrinsic fluorescence quenching titration on lysozyme (LYS)

T1 sequence (P00698 19-147): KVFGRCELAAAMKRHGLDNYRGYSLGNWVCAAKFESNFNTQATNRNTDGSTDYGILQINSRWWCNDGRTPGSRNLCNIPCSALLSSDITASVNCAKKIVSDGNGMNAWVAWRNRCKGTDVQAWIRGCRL

Compound: O=C(O)c1cc(O)c(O)c(O)c1 [GA, 3,4,5-trihydroxybenzoic acid]
- K: 393000 L/mol

Reference: article PMC4519872, “Characterization of the Interaction between Gallic Acid and Lysozyme by Molecular Dynamics Simulation and Optical Spectroscopy” (International Journal of Molecular Sciences, 2015)
